Assay results published in patent publication US11660309B2, “Prevention and treatment of inflammatory conditions” (GRI BIO, INC., priority 2011, dated 2023).
Entries after “also recorded” stand apart in the source; their conditions may differ.

Experiments:
type I NKT cells [1] = experiment: In vitro αGalCer-stimulated proliferation of splenic type I NKT cells ([3H]-thymidine incorporation); type: cell-based, naïve B6 mice; conditions: for type I NKT cell proliferation at optimal concentration of RAR agonist: Example 15, αGalCer 10 ng/ml, comparison among ATRA, Tretinoin, AM580, AC55649, CD1530
Experimental: Retinoic acid receptors (RARs) comprise three major subtypes: RARα, RAR β, and RARγ. The RAR agonist ATRA is not selective for a specific subtype. The contribution of RAR subtypes to inhibition of type I NKT cell activity was tested with subtype-selective RAR agonists as follows. Splenic cells were isolated from naïve B6 (WT) mice and cultured in vitro in the presence of [^3H]-thymidine, an optimal concentration of αGalCer, and graded concentrations of the pan-RAR agonist ATRA, the RARα agonist AM580, the RAR β 2 agonist AC55649 or the RARγ agonist CD1530. Proliferation of the type I NKT cells in response to αGalCer stimulation was measured by [^3H]-thymidine incorporation. […]
In vitro proliferation and cytokine release assays were performed on freshly isolated splenocytes and type I NKT cell hybridomas (1.2 Hyb). The cells were cultured in the presence of [3H]-thymidine and an optimal concentration of αGalCer (10 ng/ml) with titrating concentrations of ATRA, Tretinoin, the RARα agonist AM580, the RAR β agonist AC55649 or the RARγ agonist CD1530. Proliferation of the type I NKT cells in response to αGalCer stimulation was quantified by [^3H]-thymidine incorporation. IL-2 levels were measured using IL-2 sandwich ELISA. Optimal concentrations of the RAR agonists was determined. […]

[2] = test system: MBPAc1-9-reactive CD4+ T cells; experiment: Proliferation of MBPAc1-9-reactive CD4+ T cells ([3H]-thymidine incorporation); type: cell-based, naïve B10.PL VB8.2 TCR transgenic mice; conditions: ATRA 0.15, 1.2, 18.8 μg/ml
Experimental: The effect of ATRA on class II MHC-restricted conventional CD4 T Cells was tested by isolating myelin basic protein MBPAc1-9-reactive CD4+ T cells from naïve B10.PL VB8.2 TCR transgenic mice and culturing the cells in vitro with [^3H]-thymidine and an optimal concentration of MBPAc1-9 in the presence or absence of graded concentrations of ATRA (0.15, 1.2, 18.8 μg/ml). Proliferation of the MBPAc1-9-reactive CD4+ T cells was measured by [^3H]-thymidine incorporation.

liver type I NKT cells = experiment: Flow cytometry count of liver type I NKT cells (αGalCer/CD1d-tetramer/TCRβ) after in vivo administration; conditions: mice injected i.p. 15 mg/kg daily for 5 days
Experimental: (§1) Functional changes in type I NKT cells following in vivo administration of Tazarotene or ATRA was tested. Groups of mice were injected intraperitoneally with […] (15 mg/kg), 300 μg Tazarotene (15 mg/kg) or vehicle (DMSO) daily for a period of 5 days. Splenic Type I NKT cells were purified and cultured in vitro with increasing concentrations of αGalCer. Cell proliferation was measured by quantification of [^3H]-thymidine incorporation and the results are shown at FIG. 17.
Mononuclear cells were isolated from livers of mice injected with either ATRA, Tazarotene or vehicle (DMSO) and stained with αGalCer/CD1d-tetramer and a pan anti-TCRβ antibodies. Flowcytometry was performed and the population of αGalCer/CD1d-tetramer/TCRβ expressing cells (type I NKT cells) was quantified as shown in FIG. 18.

[3] = test system: alcohol-induced liver injury; experiment: Alcohol-induced liver injury, chronic plus binge ethanol feeding: serum ALT and liver histology; type: in vivo, B6 (WT) male mice
Description: Following acclimatization with nutritionally adequate Lieber-DeCarli liquid diet for a week, 6-8 week old male C57BL/6J mice (B6) and Jα18−/− mice, which lack type I NKT cells but not type 2 NKT cells, were given free access to a liquid diet containing 5% ethanol or an isocaloric dextrin maltose-containing diet (Bio-Serv, NJ). Precautions were taken to prepare the diet fresh every day using autoclaved water in sterilized feeders, changing feed daily.
B6 and Jα18−/− mice receiving the ethanol-containing diet were separated into two groups, the chronic ethanol feeding group and the chronic plus binge ethanol feeding group. Mice in the chronic ethanol feeding group were fed liquid diet containing 5% ethanol for up to 4-5 weeks. Mice in the chronic plus binge ethanol feeding group were fed liquid diet containing 5% ethanol for 10 days followed by (on day 11) a single high dose of gavaged ethanol (5 g/kg body weight). Mice in the control group were gavaged with isocaloric dextrin maltose. Following gavage, mice were kept on a temperature controlled warm pad and monitored. Though initially slow moving, most mice receiving the high dose of gavaged ethanol regained normal behavior within hours. Mice were euthanized 8-9 hr after gavage. […]
Serum ALT levels were determined for each group of mice. […]

[4] = test system: Type I NKT hybridoma cells (Hy1.2); experiment: IL-2 secretion by Hy1.2 cells pretreated with ATRA in the absence of antigen-presenting cells; type: cell-based; conditions: Hy1.2 pretreated 24 hr with 5, 10 or 20 μg/ml ATRA, washed, then APCs + graded αGalCer, 16 hour
Experimental: The effect of ATRA treatment on type I NKT cells in the absence of antigen-presenting cells was also measured. Type I NKT hybridoma cells (Hy1.2) were cultured in vitro either without ATRA or with 5 μg/ml, 10 μg/ml, or 20 μg/ml ATRA for 24 hr. The cells were then washed three times and co-cultured with irradiated splenocytes (APCs) in the presence of graded concentrations of the lipid antigen, αGalCer. Supernatants were collected 16 hour later and IL-2 levels were measured using IL-2 sandwich ELISA.

type I NKT cells (Hy1.2) = experiment: IL-2 secretion by type I NKT cell hybridoma (Hy1.2) with APCs and αGalCer (IL-2 sandwich ELISA); type: cell-based
Experimental: The affect of ATRA on IL-2 cytokine secretion by a type I NKT cells in response to an in vitro challenge with αGalCer was tested by co-culturing NKT cells (Hy1.2) and irradiated antigen-presenting cells (APCs) in vitro with an optimal concentration of αGalCer in the presence or absence of ATRA (0.15 μg/ml, 1.2 μg/ml, or 18.8 μg/ml) for a period of 16 hours. Supernatants were collected and secreted IL-2 levels were measured using IL-2 sandwich ELISA.
In vitro proliferation and cytokine release assays were performed on freshly isolated splenocytes and type I NKT cell hybridomas (1.2 Hyb). The cells were cultured in the presence of [3H]-thymidine and an optimal concentration of αGalCer (10 ng/ml) with titrating concentrations of ATRA, Tretinoin, the RARα agonist AM580, the RAR β agonist AC55649 or the RARγ agonist CD1530. Proliferation of the type I NKT cells in response to αGalCer stimulation was quantified by [^3H]-thymidine incorporation. IL-2 levels were measured using IL-2 sandwich ELISA. Optimal concentrations of the RAR agonists was determined.
In vitro proliferation and cytokine release assays were performed on freshly isolated splenocytes and type I NKT cell hybridomas (1.2 Hyb). The cells were cultured in the presence of [^3H]-thymidine and an optimal concentration of αGalCer (10 ng/ml) with increasing concentrations of ATRA or Tazarotene. Proliferation of the type I NKT cells in response to αGalCer stimulation was quantified by [H]-thymidine incorporation. IL-2 levels were measured using IL-2 sandwich ELISA.

type I NKT cells [5] = experiment: Ex vivo proliferation and cytokine response to αGalCer of type I NKT cells from RAR agonist injected mice; type: in vivo; conditions: for proliferative response of splenic type I NKT cells to αGalCer stimulation: Example 17, cells from mice injected i.p. 15 mg/kg daily for 5 days, vs vehicle (DMSO)
Experimental: Functional changes in type I NKT cells following ATRA administration were further tested. In two independent experiments, groups of Black 6 (WT) mice were injected intraperitoneally with 0.3 mg/animal (˜15 mg/Kg body weight) ATRA or vehicle (DMSO) daily for a period of 5 days. Type I NKT cells were purified and cultured in vitro with increasing concentrations of αGalCer. Cell proliferation was measured and supernatants were collected. The cytokine response of the isolated type I NKT after in vitro challenge with αGalCer was determined by sandwich ELISA for IFN-γ, IL-4, IL-6, IL-10, IL-12, and IL-13. […] No secretion of IFN-γ, IL-6, IL-10, IL-12, or IL-13 in response to αGalCer stimulation was detected from type I NKT cells isolated from ATRA injected mice.
as §1

[6] = Example 16, splenocytes, αGalCer 10 ng/ml, increasing concentrations of ATRA or Tazarotene
[7] = Example 16, 1.2 Hyb, αGalCer 10 ng/ml, increasing concentrations of ATRA or Tazarotene
[8] = cells from mice injected i.p. with 0.3 mg/animal ATRA daily for 5 days

`CCCCCCCCc1ccc(-c2ccc(C(=O)O)cc2)cc1` [AC55649] was tested, and the “type I NKT cell proliferation in response to αGalCer” value (type I NKT cells [1]; Example 12, 10^1 μg/ml) was “low or minimal proliferation” and the “type I NKT cell proliferation in response to αGalCer” value (type I NKT cells [1]; Example 12, graded concentrations up to (below) 10^1 μg/ml) was “Reduced cell proliferation”.

With `CC1(C)CCC(C)(C)c2cc(C(=O)Nc3ccc(C(=O)O)cc3)ccc21` [AM580] the “type I NKT cell proliferation in response to αGalCer” value (type I NKT cells [1]; Example 12, 10^1 μg/ml) was “proliferation was maintained”.

With `CC1=C(/C=C/C(C)=C/C=C/C(C)=C/C(=O)O)C(C)(C)CCC1` [ATRA, all trans retinoic acid] the “MBPAc1-9-stimulated proliferation of CD4+ T cells” value [2] was “No inhibition; also recorded: does not directly inhibit”, the “numbers of type I NKT cells in the livers vs control” value (liver type I NKT cells) was “no significant difference” and the “protection from liver damage following excess alcohol consumption (summary of FIGS. 6 and 7)” value [3] was “significantly inhibits liver damage”. For the same compound, the “liver histology for hepatic steatohepatitis (fatty liver disease)” value ([3]; B6 mice, sulfatide or ATRA injected) was “little sign of fatty liver disease; also recorded: appears relatively normal”, the IL-2 secretion [4] was “inhibits IL-2 secretion” and the “αGalCer-induced type I NKT cell proliferation compared with αGalCer alone” value (type I NKT cells [1]; 0.15 μg/ml ATRA + αGalCer) was “similar”. The “αGalCer-induced type I NKT cell proliferation compared with αGalCer alone” value (type I NKT cells [1]; 1.2 μg/ml ATRA + αGalCer) was “reduced”, the “αGalCer-induced type I NKT cell proliferation compared with αGalCer alone” value (type I NKT cells [1]; 18.8 μg/ml ATRA + αGalCer) was “greatest inhibition” and the “type I NKT cell proliferation” value (type I NKT cells [1]; ATRA alone, no αGalCer) was “No or minimal proliferation”. The “type I NKT cell proliferation in response to αGalCer” value (type I NKT cells [1]; Example 12, 10^1 μg/ml) was “low or minimal proliferation”, the “type I NKT cell proliferation in response to αGalCer” value (type I NKT cells [1]; Example 14, 10^1 μg/ml) was “no or minimal proliferation” and the “type I NKT cell proliferation at optimal concentration of RAR agonist” value (type I NKT cells [1]) was “lowest levels of proliferation”. For the same compound, the “type I NKT cell proliferation” value (type I NKT cells [1]; [6]) was “inhibit”, the IL-2 secretion (type I NKT cells (Hy1.2); 0.15 μg/ml ATRA, αGalCer, irradiated APCs, 16 hours) was “not significantly affected” and the IL-2 secretion (type I NKT cells (Hy1.2); 1.2 μg/ml ATRA, αGalCer, irradiated APCs, 16 hours) was “significant reductions”. For the same compound, the IL-2 secretion (type I NKT cells (Hy1.2); 18.8 μg/ml ATRA, αGalCer, irradiated APCs, 16 hours) was “greatest reduction”, the IL-2 secretion (type I NKT cells (Hy1.2); [7]) was “inhibit” and the “proliferative response of splenic type I NKT cells to αGalCer stimulation” value (type I NKT cells [5]) was “inhibits type I NKT cell activity”. For the same compound, the “proliferation of type I NKT cells in response to αGalCer stimulation” value (type I NKT cells [5]; cells from WT mice injected i.p. with 0.3 mg/animal ATRA daily for 5 days) was “did not proliferate”, the “IFN-γ secretion in response to αGalCer stimulation” value (type I NKT cells [5]; [8]) was “No secretion” and the “IL-4 secretion in response to αGalCer stimulation” value (type I NKT cells [5]; [8]) was “Reduced levels”. The “IL-6 secretion in response to αGalCer stimulation” value (type I NKT cells [5]; [8]) was “No secretion”, the “IL-10 secretion in response to αGalCer stimulation” value (type I NKT cells [5]; [8]) was “No secretion” and the “IL-12 secretion in response to αGalCer stimulation” value (type I NKT cells [5]; [8]) was “No secretion”. For the same compound, the “IL-13 secretion in response to αGalCer stimulation” value (type I NKT cells [5]; [8]) was “No secretion”.

In the case of `O=C(O)c1ccc(-c2ccc3cc(O)c(C45CC6CC(CC(C6)C4)C5)cc3c2)cc1` [CD1530], the “type I NKT cell proliferation in response to αGalCer” value (type I NKT cells [1]; Example 12, 10^1 μg/ml) is reported as “low or minimal proliferation”, the “type I NKT cell proliferation at optimal concentration of RAR agonist” value (type I NKT cells [1]) is reported as “lowest levels of proliferation” and the “IL-2 secretion at optimal concentration of RAR agonist” value (type I NKT cells (Hy1.2); Example 15, 1.2 Hyb, αGalCer 10 ng/ml, comparison among RAR agonists) is reported as “lowest levels of IL-2 secretion”.

In the case of Tazarotene, the “numbers of type I NKT cells in the livers vs control” value (liver type I NKT cells) is reported as “no significant difference”, the “type I NKT cell proliferation” value (type I NKT cells [1]; [6]) is reported as “achieves its inhibitory effects at lower concentrations; also recorded: better inhibition of type I NKT cells than ATRA” and the IL-2 secretion (type I NKT cells (Hy1.2); [7]) is reported as “achieves its inhibitory effects at lower concentrations”. The “proliferative response of splenic type I NKT cells to αGalCer stimulation” value (type I NKT cells [5]) was “lowest levels of proliferation”.
